From patent US8431530B2, “Compositions and methods for treating aids or cancer by inhibiting the secretion of microparticles” (priority 2009, dated 2013)

Tests used:
[1] = tested on: HIV-1 Nef-GFP secretion, cell line H; assay: HIV-1 Nef-GFP induced secretion, fluorescent plate reader assay; type: cell-based; details: for SMRmt/SMRwt ratio of secretion: HIV-1 Nef-GFP; for Increase in Secretion (relative to untransfected cells), exp condition/UT: HIV-1 Nef-GFP (sM1 column head prints GFP/sM1)
R7; Magi/CXCR4 cells = assay: Magi assay of viral infectivity, supernatants of Jurkat cells; type: cell-based, HIV; details: for blue staining (productively infected) Magi/CXCR4 cells: 48 hour conditioned supernatant of Jurkat cells transfected with R7 and peptide, X-Gal
Method: Magi/CXCR4 cells were exposed to 48 hour conditioned supernatants from Jurkat cells, HEK293 cells, THP-1 monocytes, or U937 monocytes transfected with either R7 viral DNA/SMRwt peptide or R7 viral DNA/SMRmt peptide. These cells were then fixed and stained with X-Gal. […] Cells productively infected with R7 are easily visualized under light microscopy by their blue nuclear staining. Magnification ×20. […] This is indicative of virus in the conditioned supernatant from the R7/negative control peptide treated cells and no virus in conditioned supernatant from the R7/antagonist treated cells.
These Magi cultures were quantitated for blue staining cells. The data was plotted as a function of time post-transfection. […] This is possibly due to antagonism of trafficking of viral component(s) to the cytoplasmic membrane. Ultimately this would shutdown the HIV infection and block progression to AIDS.

R7 in Jurkat cells = assay: p24 ELISA of supernatant after R7 co-transfection; type: cell-based, HIV
Method: Jurkat cells, HEK293 cells, THP-1 monocytes and U937 monocytes were co-transfected with either R7 […] Nef SMR wt (antagonist) or with R7+Nef SMR mt (nonfunctional antagonist) by Chariot™ Kit. The transfection efficiency was 30-40%.
(§1) R7 is a clone containing the viral genome. Transfection into cells allows expression of the viral genome and ultimately virion formation and release. The amount of virion production in the extracellular supernatant is measured through p24 protein (viral protein).
At 2 hours, 3 days, 6 days, 9 days, 13 days, 15 days, 17 days, 20 days, 23 days, 27 days and 36 days post-transfection, 0.5 ml supernatant were collected from each plate, mixed with 0.5 ml fresh media and analyzed by p24 ELISA assay. 1.5 ml of supernatant were collected from each plate and spun in a TLA100 rotor at 400,000×g for 1 hour to create the pellets. The pellets were used for Western blot analysis with p24 mAb and Nef mAb.

[2] = tested on: HIV-1 Gag-GFP secretion, HEK293; assay: HIV-1 Gag-GFP induced secretion, fluorescent plate reader assay; type: cell-based; details: for SMRmt/SMRwt ratio of secretion: HEK293, HIV-1 Gag-GFP; for Increase in Secretion (relative to untransfected cells), exp condition/UT: HEK293, HIV-1 Gag-GFP (sM1 column head prints GFP/sM1), 0.5 μg peptide, 48 hours
Method: (§2) Cells were co-transfected with 0.5 μg of pQBI-HIV Gag-GFP (expresses wild type Gag protein) and either 0.5 μg of HIV-1 Nef SMRwt, SMRmut peptide, sM1 peptide or untransfected controls with Chariot for 48 hours. The conditioned supernatants from these cultures were assayed for GFP fluorescence by plate reader.

[3] = tested on: HIV-1 Gag-GFP secretion, Jurkat; assay: as above; type: cell-based; details: for SMRmt/SMRwt ratio of secretion: HIV-1 Gag-GFP; for Increase in Secretion (relative to untransfected cells), exp condition/UT: HIV-1 Gag-GFP (sM1 column head prints GFP/sM1), 0.5 μg peptide, 48 hours
Method: as §2

[4] = tested on: HIV-1 Gag-GFP secretion, U937; assay: as above; type: cell-based; details: for SMRmt/SMRwt ratio of secretion: U937, HIV-1 Gag-GFP; for Increase in Secretion (relative to untransfected cells), exp condition/UT: U937, HIV-1 Gag-GFP (sM1 column head prints GFP/sM1), 0.5 μg peptide, 48 hours
Method: as §2

[5] = tested on: HIV-1 Gag-GFP secretion, THP-1; assay: as above; type: cell-based; details: for SMRmt/SMRwt ratio of secretion: THP-1, HIV-1 Gag-GFP; for Increase in Secretion (relative to untransfected cells), exp condition/UT: THP-1, HIV-1 Gag-GFP (sM1 column head prints GFP/sM1), 0.5 μg peptide, 48 hours
Method: as §2

[6] = tested on: Gag-GFP + HIV-1wtNef-RFP secretion, Jurkat; assay: Gag-GFP secretion in presence of wtNef-RFP, fluorescent plate reader assay; type: cell-based; details: for Secretion relative to untransfected cells: Jurkat, Gag-GFP + HIV-1wtNef-RFP + peptide, 48 hours
Method: (§3) Cells were transfected with the pQBI-HIV Gag-GFP construct, wtNef-RFP, and either the antagonist (SMRwt peptide), the negative control SMRmt peptide, or a random peptide sM1 with Chariot for 48 hours. The conditioned supernatants from these cultures were assayed for GFP fluorescence by plate reader.

[7] = tested on: Gag-GFP + HIV-1wtNef-RFP secretion, THP-1 Monocyte; assay: as above; type: cell-based; details: Gag-GFP + HIV-1wtNef-RFP + peptide, 48 hours
Method: as §3

pNL4-3 in Jurkat cells = assay: p24 assay of virion production after pNL4-3 co-transfection; type: cell-based, HIV; details: for amount of virus production (in words, Table I): 96 hours, pNL4-3 co-transfection; for p24 / Effect (a/b): Jurkat; for p24: co-transfected with pNL4-3; for Effect (a/b): p24 of sample / p24 of pNL4-3 + sM1
Method: I. Jurkat cells were co-transfected as shown below: (transfection efficiency 30-40% by Chariot Kit):
as §1, with “pNL4-3” for “R7”, “protein). Samples were collected at 48 hours and 96 hours post-infection.” for “protein).”
(§4) At 48 hr postinfection two plates in each group were removed and analyzed by: • a. p24 assay • b. Nef assay • c. Infectivity assay • At 96 hr postinfection the other two plates in each group were removed and analyzed by: • a. p24 assay • b. Nef assay • c. Infectivity assay

pNL4-3 in 293 cells = assay: as above; type: cell-based, HIV; details: for p24: co-transfected with pNL4-3; for Effect (a/b): p24 of sample / p24 of pNL4-3 + sM1
Method: as §1, with “pNL4-3” for “R7”, “protein). Samples were collected at 48 hours and 96 hours post-infection.” for “protein).”
as §4

[8] = tested on: NefGFP release from HEK293 cells; assay: Nef-GFP co-transfection secretion assay, GFP fluorescence of supernatant; type: cell-based; details: HEK293, 0.5 μg Nef-GFP + 0.5 μg peptide, Chariot, 48 h; relative to NefGFP+sM1 (100%)
Method: Therefore, a set of co-transfection experiments were performed. HEK293 cells were co-transfected with 0.5 μg of pQBI-HIV Nef-GFP (expresses wild type Nef protein) and either 0.5 μg of HIV-1 Nef SMRwt or SMRmut peptide or sM1 peptide (a totally random control peptide, ALAETCQNAWA (SEQ ID NO: 7)) with Chariot. Briefly, the wild-type Nef-GFP clone and the SMR peptides were complexed with Chariot reagent for 30 minutes at RT. The DNA/peptide/Chariot complex was added to HEK293 cells in serum-free media, and the cells were plated. Following incubation for 2 hours at 37° C., media with serum was added to the dish, and the cells were incubated at 37° C. for 48 h. The media was then collected and assayed for secretion using a spectrofluorimeter. The conditioned supernatants from these cultures were assayed for GFP fluorescence by plate reader.

| Substance | SMRmt/SMRwt ratio of secretion [1] [y] | Increase in Secretion (relative to untransfected cells), exp condition/UT [1] [x] | blue staining (productively infected) Magi/CXCR4 cells (R7; Magi/CXCR4 cells) | time post transfection at which p24 concentration increased (R7 in Jurkat cells) [days] | SMRmt/SMRwt ratio of secretion [2] [y] | Increase in Secretion (relative to untransfected cells), exp condition/UT [2] [x] | SMRmt/SMRwt ratio of secretion [3] [y] | Increase in Secretion (relative to untransfected cells), exp condition/UT [3] [x] | SMRmt/SMRwt ratio of secretion [4] [y] | Increase in Secretion (relative to untransfected cells), exp condition/UT [4] [x] | SMRmt/SMRwt ratio of secretion [5] [y] | Increase in Secretion (relative to untransfected cells), exp condition/UT [5] [x] | Secretion relative to untransfected cells ([6]; first line) [x] | Secretion relative to untransfected cells ([6]; second line (not explained)) [x] | Secretion relative to untransfected cells ([7]; first line) [x] | Secretion relative to untransfected cells ([7]; second line (not explained)) [x] | amount of virus production (in words, Table I) (pNL4-3 in Jurkat cells) | p24 (pNL4-3 in Jurkat cells; 48 hr) [pg/mL] | Effect (a/b) (pNL4-3 in Jurkat cells; 48 hr) | p24 (pNL4-3 in Jurkat cells; 96 hr) [pg/mL] | further results |
| --- | --- | --- | --- | --- | --- | --- | --- | --- | --- | --- | --- | --- | --- | --- | --- | --- | --- | --- | --- | --- | --- |
| H2N-AGFPVAAAGFPVDYKDDDDK-OH (H-AGFPVAAAGFPVDYKDDDDK-OH) [SMRmt] | 24.8 | 57.04 | many blue staining cells | 3 | 1.08 | 25.96 | 1.22 | 58.22 | 1 | 43.82 | 1.08 | 45.06 | 55.73 | 43.51 | 49.27 | 22.24 | no effect | 0 | 1 | 15 | Effect (a/b) (pNL4-3 in Jurkat cells; 96 hr): 0.5; p24 (pNL4-3 in 293 cells; 293, 48 hr): 30 pg/mL; Effect (a/b) (pNL4-3 in 293 cells; 293, 48 hr): 0.67; p24 (pNL4-3 in 293 cells; 293, 96 hr): 1125 pg/mL; Effect (a/b) (pNL4-3 in 293 cells; 293, 96 hr): 1.17; release of NefGFP into the extracellular supernatant (GFP fluorescence) [8]: no effect |
| H-VGFPVAAVGFPVDYKDDDDK-OH [SMRwt] | 1.0 | 2.3 | drastically reduced numbers of blue staining cells | 13 | 1 | 24.22 | 1 | 47.46 | 1 | 43.95 | 1 | 41.3 | 1.3 | 1.16 | 0.95 | 0.91 | reduced drastically | 0 | 1 | 0 | numbers of infected Magi cells as a function of time post-transfection (R7; Magi/CXCR4 cells; supernatant from transfected Jurkat cells): significantly reduced; Gag virus-like particle release (in words, Table II) ([3]; Gag-GFP alone, HEK293, THP-1, U937): no effect on Gag virus-like particle release; release of Gag virus-like particles in the presence of wtNef-RFP (in words, Table III) ([6]; Jurkat and THP-1, Gag-GFP + wtNef-RFP): blocks release of Gag virus-like particles; Effect (a/b) (pNL4-3 in Jurkat cells; 96 hr): <0.033; p24 (pNL4-3 in 293 cells; 293, 48 hr): 90 pg/mL; Effect (a/b) (pNL4-3 in 293 cells; 293, 48 hr): 2; p24 (pNL4-3 in 293 cells; 293, 96 hr): 345 pg/mL; Effect (a/b) (pNL4-3 in 293 cells; 293, 96 hr): 0.359; release of NefGFP into the extracellular supernatant (GFP fluorescence) [8]: antagonizes the release of NefGFP into the extracellular supernatant |
